Entries after “also recorded” stand apart in the source; their conditions may differ. Where two headings read alike, the source gives them in different places.
Columns and labels:
HCV IRES subdomain IIa [1] = format: binding, hepatitis C virus; conditions: for Kd: 30 nM Cy5-labelled RNA, 10 mM HEPES pH 7.0, 2 mM MgCl2, 2% DMSO, ≥ = no saturation, n.b. no binding observed, read-out: MST KD; for binding to HCV IRES subdomain IIa (MST-shift), in words: pre-screening 1000 (or 316), 100, 10 and 0.001 μM
Experimental: For the MST assay, the same sequence of the two stranded HCV IRES subdomain IIa as for the FRET assay was used. One strand was 5′-Cy5-labelled and the other strand was unmodified ([…], Cy5-[…], Biomers.net GmbH). All samples containing labelled RNA were treated under light protection. MST experiments were performed on a Monolith NT.115 from NanoTemper Technologies using standard uncoated capillaries. The strands were annealed by heating to 75 °C in MST buffer (10 mM HEPES pH 7.0, 2 mM MgCl2) and cooled down to room temperature for at least 20 min. The 5′-Cy5-labelled HCV IRES domain IIa RNA was diluted to 30 nM in MST buffer and supplemented with compounds 8–25 in appropriate concentrations. Compounds 4 and 5 were used as positive controls. For the initial screening, compounds were added to final concentrations of 1000 (or 316 if limited by solubility), 100, 10 and 0.001 μM (Fig. S5 ^†). If a concentration-dependent shift of thermophoresis was observed, KD-values were determined using concentrations ranging from 1 mM (if permitted by solubility, otherwise starting from 316 or 100 μM) to 0.01 μM in a 3.16-fold (semi-logarithmic) dilution series. For each experiment, one DMSO negative control was carried out. Final DMSO concentration was always 2%.
(§1) Off-target counter screens by MST were performed as described previously.[31,84] Briefly, the 5′-Cy5-labelled Tte preQ1-Riboswitch aptamer domain (Biomers.net GmbH) was heated to 75 °C for 5 min, cooled down to room temperature for at least 20 min and then diluted to 20 nM in MST buffer (50 mM Tris-HCl pH 7.5, 100 mM KCl, 25 mM MgCl2) and supplemented with compounds 4, 5, 8–13, 18, 21, 22 and 26 to final concentrations of 1000, 100, 10 and 0.001 μM. PreQ1 was used as a positive control. The 5′-Cy5-labelled B. angulatum SAM VI-Riboswitch aptamer domain (Eurofins Genomics GmbH) was heated to 75 °C for 5 min, cooled down to room temperature for at least 20 min and then diluted to 20 nM in MST buffer (50 mM Tris-HCl pH 7.5, 100 mM KCl, 25 mM MgCl2) and supplemented with compounds 5, 9 and 28 to final concentrations of 1000, 100, 10 and 0.001 μM. SAM was used as a positive control. For each experiment, one DMSO negative control was carried out. The final DMSO concentration was 2%. All measurements were performed at least as duplicates for pre-screening and triplicates for KD-determination. MST measurements were analyzed from signals after 18 s laser on-time using the MO.Affinity Analysis software (version 2.3) and exported for statistical analysis and plotting in GraphPad Prism (version 8.0.1., GraphPad Software, Boston, Massachusetts USA, https://www.graphpad.com).

HCV IRES subdomain IIa [2] = assay: FRET assay monitoring ligand-induced conformational change of Cy3/Cy5-labelled HCV IRES subdomain IIa; format: biochemical, hepatitis C virus; conditions: for FRET-signal change / conformational change of HCV IRES subdomain IIa, in words: pre-screening 1000, 100, 10 and 0.001 μM
Experimental: For the FRET assay, a two stranded HCV IRES subdomain IIa carrying a 5′-Cy3-label on one and 5′-Cy5-label on the other strand (Cy3-[…], Cy5-[…], Biomers.net GmbH) was used as described previously.[22,53] All samples containing labelled RNA were treated under light protection. FRET experiments were performed on a Tecan Spark 10 M plate reader (excitation/emission: 480/670 nm) using black half area 96 well microplates (Greiner Bio-One), based on a protocol by Zhou et al.[53] The 5′-Cy3- and 5′-Cy5-labelled single strands were annealed by heating to 75 °C in FRET buffer (10 mM HEPES pH 7.0, 2 mM MgCl2) and cooled down to room temperature for at least 20 min. The 5′-Cy3/Cy5-labelled RNA was diluted to 100 nM in FRET buffer and supplemented with compounds 8–28 in appropriate concentrations. Compounds 4 and 5 were used as positive controls. For the initial screening, compounds were added in final concentrations of 1000, 100, 10 and 0.001 μM (Fig. S4 ^†). If a concentration dependent reduction of the FRET signal (Cy5-emission) was observed, EC50-values were determined using ligand concentrations from 1 mM to 100 nM in 3.16-fold (semi-logarithmic) dilution series. For those compounds, the Cy3 emission was measured at 535 nm to confirm a conformational change dependent reduction in the Cy5 emission signal via Cy3 emission increase (Fig. S7 ^†). For each experiment, one DMSO negative control was carried out. The final DMSO concentration was always 2%. Excitation and emission spectra were recorded for the Cy3/Cy5-labelled RNA (100 nM) in FRET buffer to confirm excitation (Cy3) and emission (Cy5) wavelength as well as for each compound (1 μM) in FRET buffer to exclude any interference with the cyanine dyes. All measurements were performed at least as triplicates for screening and EC50-determination.
FRET experiments were analyzed using GraphPad Prism (version 8.0.1., GraphPad Software, Boston, Massachusetts USA, https://www.graphpad.com).

[3] = system: Tte preQ1-Riboswitch aptamer domain; assay: MST off-target counter screen, preQ1-riboswitch aptamer domain; format: binding, Thermoanaerobacter tengcongensis
Experimental: as §1

HCV IRES subdomain IIa [4] = system: HCV IRES subdomain IIa; set-up: method as in PMID 25349403; conditions: previous study, cited from earlier work
[5] = target: SAM VI-Riboswitch aptamer domain; assay: MST off-target counter screen, SAM VI-riboswitch aptamer domain; format: binding, B. angulatum; conditions: positive control; read-out: KD of positive control binding to SAM-VI-riboswitch (MST)
Experimental: as §1

[6] = 100 nM Cy3/Cy5-labelled RNA, 10 mM HEPES pH 7.0, 2 mM MgCl2, 2% DMSO, ≥ = lower limit

| Kd (HCV IRES subdomain IIa [1]) | EC50 (HCV IRES subdomain IIa [2]; [6]) | Compound | FRET-signal change / conformational change of HCV IRES subdomain IIa, in words (HCV IRES subdomain IIa [2]) | further results |
| --- | --- | --- | --- | --- |
| ≥ 50 µM | ≥ 0.3 mM | Nc1cc(-c2ccc3[nH]ncc3c2)c2cc[nH]c2n1 [Compound 12] | – | – |
| ≥ 100 µM | ≥ 1 mM | NC1=NC(c2cn[nH]c2-c2cccc(O)c2)n2c(nc3ccccc32)N1 (stereo not drawn) [Compound 13] | – | EC50 (HCV IRES subdomain IIa [2]; as printed in text in mM): ≥ 1 mM |
| – | – | NC1=Nc2nc3ccccc3n2C(C2CC2)N1 (stereo not drawn) [Compound 18] | no large changes in FRET-signals; also recorded: no changes in the FRET-assay | – |
| – | – | COc1cccc(C2NC(N)=Nc3nc4ccccc4n32)c1 (stereo not drawn) [Compound 21] | no large changes in FRET-signals; also recorded: no changes in the FRET-assay | – |
| – | – | NC1=NC(c2ccccc2)n2c(nc3ccccc32)N1 (stereo not drawn) [Compound 22] | no large changes in FRET-signals; also recorded: no changes in the FRET-assay | – |
| ≥ 100 µM | ≥ 0.5 mM | N=C(N)NC(=O)c1nc(Cl)c(N)nc1N [Compound 26, amiloride, reference compound] | – | binding to HCV IRES subdomain IIa (MST-shift), in words (HCV IRES subdomain IIa [1]): some weak binding; preQ1-riboswitch binding / selectivity (MST-shift), in words ([3]; 1000, 100, 10 and 0.001 μM): selectivity over the preQ1-riboswitch |
| – | – | CN(C)C(=O)COC(=O)Cc1ccc(OC(=O)c2ccc(NC(=N)N)cc2)cc1 [Compound 27, Camostat, reference compound] | no binding | binding to HCV IRES subdomain IIa (MST-shift), in words (HCV IRES subdomain IIa [1]): no binding |
| – | – | Nc1nc2[nH]cnc2c(=O)[nH]1 [G] | – | HCV IRES subdomain IIa binding, in words (HCV IRES subdomain IIa [4]): weak binding behavior; EC50 (HCV IRES subdomain IIa [4]; read-out: EC50 HCV IRES subdomain IIa binding): 1.05 mM |
| – | – | C[S+](CC[C@H](N)C(=O)[O-])C[C@H]1O[C@@H](n2cnc3c(N)ncnc32)[C@H](O)[C@@H]1O (stereo partly drawn) [SAM, reference compound] | – | Kd [5]: 772 nM |
| – | – | N=C(N)NCCC[C@H](N)C(=O)O [arginine] | – | HCV IRES subdomain IIa binding, in words (HCV IRES subdomain IIa [4]): no binding |
| – | – | NCc1c[nH]c2nc(N)[nH]c(=O)c12 [preQ1] | – | Kd ([3]; positive control, read-out: KD of positive control binding to preQ1-riboswitch (MST)): 12 nM |

| Compound | Kd (HCV IRES subdomain IIa [1]) | EC50 (HCV IRES subdomain IIa [2]; [6]) | FRET-signal change / conformational change of HCV IRES subdomain IIa, in words (HCV IRES subdomain IIa [2]) | further results |
| --- | --- | --- | --- | --- |
| CC(C)NCC(O)COc1ccc2[nH]cc(CCN)c2c1 (stereo not drawn) [Compound 11] | ≥ 100 µM | ≥ 0.5 mM | – | – |

From PMC11110755, “Structure-based virtual screening of unbiased and RNA-focused libraries to identify new ligands for the HCV IRES model system” (RSC Medicinal Chemistry, 2024)
